Laboratory results from US4113714A, “[Des-Ala^1, Gly^2 -desamino-Cys^3 ]somatostatin” (American Home Products Corporation, priority 1975, dated 1978).

Tested on: cultured rat pituitary cells
Test: in vitro inhibition of growth hormone secretion by cultured rat pituitary cells (radioimmunoassay)
Format: cell-based
Conditions: three hours at 37° C in Eagles medium, control 441±12
Protocol: The activity of the undecapeptide of this invention was established in both in vitro and in vivo testing procedures, employing modifications of the techniques disclosed by Penso et al., Tissue Culture in Biological Research, Elsevier, 1963, p. 98; Berson et al., Metabolism, 13, 1135(1964).
The in vitro tests were conducted by covering cultured rat pituitary cells contained in petri dishes with five milliliter portions of the undecapeptide, as its diacetate salt, in Eagles medium for three hours at 37° C. Three Petri dishes were employed for each solution concentration. The amount of growth hormone produced by the cultured pituitary cells is then compared with growth hormone produced by non-treated cells prepared in identical manner, via growth hormone radioimmunoassay. The difference between the growth hormone produced by treated and non-treated pituitary cells establishes the amount of inhibition by the compound under study.
The cultured pituitary cells are prepared by excising and mincing rat pituitary glands followed by enzymatic separation of the cells (collagenase and hyaluronidase) and culture on synthetic nutrient media. When the cells attach themselves to the bottom of the plastic petri dish and cover the nutrient surface, they are washed with Eagles medium containing only inorganic salts, glucose and antibiotics in which state they are ready for use as above described.
The activity of the undecapeptide of this invention was compared in vitro with somatostatin with the following results in which the concentration valves given are in nanograms/milliliter: […]

## C[C@H](N)C(=O)NCC(=O)N[C@H]1CSSC[C@@H](C(=O)O)NC(=O)[C@H](CO)NC(=O)[C@H]([C@@H](C)O)NC(=O)[C@H](Cc2ccccc2)NC(=O)[C@H]([C@@H](C)O)NC(=O)[C@H](CCCCN)NC(=O)[C@H](Cc2c[nH]c3ccccc23)NC(=O)[C@H](Cc2ccccc2)NC(=O)[C@H](Cc2ccccc2)NC(=O)[C@H](CC(N)=O)NC(=O)[C@H](CCCCN)NC1=O [somatostatin]
Compound concentration 10 ng/ml
  Growth Hormone Secreted: 260 ± 8 ng/mL
Compound concentration 50 ng/ml
  Growth Hormone Secreted: 271 ± 22 ng/mL
Compound concentration 100 ng/ml
  Growth Hormone Secreted: 250 ± 13 ng/mL
